Data published in PubChem BioAssay (NCI).
Several values for one entry are separate records, joined by “and”; a condition that tells them apart may be missing. Equal values may be shown once.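 Five concentrations, 48 hours, 96-well plates. At the GI50, growth is halved. TGI: total growth inhibition.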

Tests used:
Experiment in all cases: inhibition of tumour cell growth, NCI panel, 48 h
[1] = system: 786-0 renal
[2] = system: HCT-116 colon
[3] = system: OVCAR-4 ovarian
[4] = system: RXF 393 renal
[5] = system: SF-268 CNS
[6] = system: SF-295 CNS
[7] = system: SK-MEL-2 melanoma
[8] = system: SNB-19 CNS
[9] = system: UACC-62 melanoma
[10] = system: UO-31 renal

In the case of `CCOC(=O)c1c(NC(=O)c2cccc(C(F)(F)F)c2)sc2c(CN(C)C)c(O)ccc12`, the GI50 [1] is reported as 2.33 µM, the TGI [1] is reported as 6.1 µM and the GI50 [2] is reported as 3.14 µM. It also gave a TGI [2] of 10.3 µM, a GI50 [3] of 9.85 µM and a TGI [3] of 21.5 µM. The GI50 [4] was 1.81 µM, the TGI [4] was 3.76 µM and the GI50 [5] was 4.69 µM. It also gave a TGI [5] of 24.1 µM, a GI50 [6] of 2.83 µM and a TGI [6] of 9.2 µM. The GI50 [7] was 2.57 µM, the TGI [7] was 6.92 µM and the GI50 [8] was 10.6 µM. For the same compound, the TGI [8] was 22.8 µM, the GI50 [9] was 1.71 µM and the TGI [9] was 3.17 µM. It also gave a GI50 [10] of 3.34 µM and a TGI [10] of 14.4 µM.

Compound `COc1ccc(-n2c(C)cc(-c3ccccc3)c2C)cc1` has a GI50 [1] of 1.94 µM, a TGI [1] of 4.85 µM and a GI50 [2] of 2.11 µM. For the same compound, the TGI [2] was 16.1 µM, the GI50 [3] was 2.46 µM and the TGI [3] was > 100 µM. For the same compound, the GI50 [4] was 1.7 µM, the TGI [4] was 5.31 µM and the GI50 [5] was 4.46 µM. The TGI [5] was 33.3 µM, the GI50 [6] was 2.2 µM and the TGI [6] was 7.58 µM. For the same compound, the GI50 [7] was 1.7 µM, the TGI [7] was 3.93 µM and the GI50 [8] was 8.41 µM. For the same compound, the TGI [8] was > 100 µM, the GI50 [9] was 2.01 µM and the TGI [9] was 12.8 µM. It also gave a GI50 [10] of 2.24 µM and a TGI [10] of 95.8 µM.

In the case of `COc1cc(OC)c(/C=C/c2c3ccccc3cc[n+]2C)c(OC)c1`, the GI50 [1] is reported as 7.37 µM, the TGI [1] is reported as > 100 µM and the GI50 [2] is reported as 1.4 µM. The TGI [2] was 13.5 µM, the GI50 [3] was 1.15 µM and the TGI [3] was > 100 µM. The GI50 [4] was 4.99 µM, the TGI [4] was > 51.3 µM and the GI50 [5] was 2.54 µM. For the same compound, the TGI [5] was 19.3 µM, the GI50 [6] was 2.17 µM and the TGI [6] was > 53.4 µM. It also gave a GI50 [7] of 2.64 µM, a TGI [7] of 6.3 µM and a GI50 [8] of 1.88 µM. For the same compound, the TGI [8] was 25 µM, the GI50 [9] was 1.51 µM and the TGI [9] was 9.58 µM. For the same compound, the GI50 [10] was 18.5 µM and the TGI [10] was > 100 µM.

`CN1C(=O)/C(=C/c2c(Cl)n(C)c3ccccc23)c2ccccc21` was tested, and the GI50 [1] was 3.09 µM, the TGI [2] was 1.39 µM and the GI50 [3] was 8.99 µM and 1.82 µM. For the same compound, the TGI [3] was 3.45 µM, the GI50 [4] was 7.89 µM and 1.56 µM and the TGI [4] was 3.84 µM. The GI50 [5] was 9.2 µM, the GI50 [6] was 2.74 µM and 1.58 µM and the TGI [6] was 7.76 µM and 2.99 µM. The GI50 [7] was 5 µM, the GI50 [8] was 6.84 µM and the GI50 [9] was 2.8 µM. The GI50 [10] was 8 µM and 1.24 µM and the TGI [10] was 2.75 µM.

For `CC[C@H]1CN2CCc3cc(OC)c(OC)cc3[C@@H]2C[C@@H]1C[C@H]1NCCc2c1[nH]c1ccc(O)cc21`, the GI50 [1] was 0.0246 µM and 0.0421 µM, the GI50 [2] was 0.0196 µM and 0.0409 µM and the TGI [2] was 0.0475 µM and 0.207 µM and 0.195 µM. The GI50 [3] was 0.0138 µM, the TGI [3] was 0.0443 µM and 0.0436 µM and < 0.0124 µM and the GI50 [4] was 0.0194 µM and 0.0351 µM. For the same compound, the TGI [4] was 0.0629 µM and 0.252 µM and 0.183 µM, the GI50 [5] was 0.0315 µM and 0.0253 µM and the TGI [5] was 0.0931 µM and 0.075 µM and 0.263 µM. The GI50 [6] was 0.0323 µM and 0.246 µM, the GI50 [7] was 0.0228 µM and the TGI [7] was 0.052 µM and 0.0353 µM. For the same compound, the GI50 [8] was 0.0249 µM and 0.0636 µM, the GI50 [9] was 0.0249 µM and 0.0448 µM and the GI50 [10] was 0.251 µM and 1.2 µM. For the same compound, the TGI [10] was 0.772 µM and 4.5 µM and 1.9 µM.

`C1=C\COCc2cc(ccc2OCCN2CCCC2)Nc2nccc(n2)-c2cccc(c2)COC/1` gave a GI50 [1] of 3.51 µM, a TGI [1] of 5.18 µM and a GI50 [2] of 1.03 µM. For the same compound, the TGI [2] was 4.07 µM, the GI50 [3] was 3.79 µM and the TGI [3] was 6.56 µM. It also gave a GI50 [4] of 1.05 µM, a TGI [4] of 2.9 µM and a GI50 [5] of 2.03 µM. The TGI [5] was 5.77 µM, the GI50 [6] was 3.34 µM and the TGI [6] was 5.94 µM. For the same compound, the GI50 [7] was 2.49 µM, the TGI [7] was 5.51 µM and the GI50 [8] was 2.68 µM. For the same compound, the TGI [8] was 7.07 µM, the GI50 [9] was 2.02 µM and the TGI [9] was 5.2 µM. It also gave a GI50 [10] of 0.722 µM and a TGI [10] of 4.01 µM.

`COc1cc2c3c(n(CCCOC(=O)C(F)(F)F)c(=O)c2cc1OC)-c1cc2c(cc1C3=O)OCO2` was tested, and the GI50 [1] was < 0.01 µM, the TGI [1] was < 0.0241 µM and the GI50 [2] was < 0.0158 µM. The GI50 [3] was 0.208 µM, the TGI [3] was > 100 µM and the GI50 [4] was 0.593 µM. For the same compound, the TGI [4] was > 67.8 µM, the TGI [5] was > 32.2 µM and the GI50 [6] was < 0.01 µM. For the same compound, the TGI [6] was 0.721 µM, the GI50 [7] was 7.3 µM and the TGI [7] was > 100 µM. For the same compound, the TGI [8] was > 100 µM, the GI50 [9] was < 0.01 µM and the GI50 [10] was < 0.01 µM. For the same compound, the TGI [10] was > 100 µM.

For `CN(CCO)c1ccc(N2Cc3ccccc3OC3=C2C(=O)c2c(O)ccc(O)c2C3=O)cn1`, the GI50 [1] was 0.245 µM, the TGI [1] was 0.74 µM and the GI50 [2] was 0.0467 µM. For the same compound, the TGI [2] was 0.223 µM, the GI50 [3] was 0.173 µM and the TGI [3] was 0.343 µM. The GI50 [4] was 0.0954 µM, the TGI [4] was 0.27 µM and the GI50 [5] was 0.274 µM. For the same compound, the TGI [5] was 0.938 µM, the GI50 [6] was 1.41 µM and the TGI [6] was 3.52 µM. For the same compound, the GI50 [7] was 0.299 µM, the TGI [7] was 0.99 µM and the GI50 [8] was 0.465 µM. It also gave a TGI [8] of 1.67 µM, a GI50 [9] of 0.21 µM and a TGI [9] of 0.498 µM. It also gave a GI50 [10] of 0.0971 µM and a TGI [10] of 0.304 µM.

With `C=C1C(=O)O[C@H]2[C@H]1CC/C(COC(=O)/C=C\C(=O)NCc1ccc(Cn3c(=O)sn(CCCC)c3=O)cc1)=C\CC[C@@]1(C)O[C@@H]21` the GI50 [1] was 1.2 µM, the TGI [1] was 2.56 µM and the GI50 [2] was 0.176 µM. It also gave a TGI [2] of 0.491 µM, a GI50 [3] of 0.626 µM and a TGI [3] of 1.87 µM. It also gave a GI50 [4] of 0.547 µM, a TGI [4] of 1.79 µM and a GI50 [5] of 1.39 µM. For the same compound, the TGI [5] was 2.78 µM, the GI50 [6] was 1.73 µM and the TGI [6] was 3.24 µM. For the same compound, the GI50 [7] was 1.67 µM, the TGI [7] was 3.31 µM and the GI50 [8] was 1.53 µM. The TGI [8] was 2.93 µM, the GI50 [9] was 1.2 µM and the TGI [9] was 2.53 µM. The GI50 [10] was 0.387 µM and the TGI [10] was 1.61 µM.
